Reference: patent publication US20260028365A1 (BIOGEN MA INC., priority 2022, published 2026)
Structures can show the parent of a compound that is named as a salt. Where two headings read alike, the source gives them in different places.

Key:
JH2 domain of human Tyk2 = JH2 domain of human Tyk2 (Homo sapiens (Human), UniProt P29597); assay: JH2 Biochemical Assay (TR-FRET probe displacement); assay type: binding
Tyk2 = Tyk2 (Homo sapiens (Human), UniProt P29597); assay: pSTAT4 Cell Assay (MSD, NK92 cells); assay type: cell-based
Chain of Tyk2 (P29597 whole entry): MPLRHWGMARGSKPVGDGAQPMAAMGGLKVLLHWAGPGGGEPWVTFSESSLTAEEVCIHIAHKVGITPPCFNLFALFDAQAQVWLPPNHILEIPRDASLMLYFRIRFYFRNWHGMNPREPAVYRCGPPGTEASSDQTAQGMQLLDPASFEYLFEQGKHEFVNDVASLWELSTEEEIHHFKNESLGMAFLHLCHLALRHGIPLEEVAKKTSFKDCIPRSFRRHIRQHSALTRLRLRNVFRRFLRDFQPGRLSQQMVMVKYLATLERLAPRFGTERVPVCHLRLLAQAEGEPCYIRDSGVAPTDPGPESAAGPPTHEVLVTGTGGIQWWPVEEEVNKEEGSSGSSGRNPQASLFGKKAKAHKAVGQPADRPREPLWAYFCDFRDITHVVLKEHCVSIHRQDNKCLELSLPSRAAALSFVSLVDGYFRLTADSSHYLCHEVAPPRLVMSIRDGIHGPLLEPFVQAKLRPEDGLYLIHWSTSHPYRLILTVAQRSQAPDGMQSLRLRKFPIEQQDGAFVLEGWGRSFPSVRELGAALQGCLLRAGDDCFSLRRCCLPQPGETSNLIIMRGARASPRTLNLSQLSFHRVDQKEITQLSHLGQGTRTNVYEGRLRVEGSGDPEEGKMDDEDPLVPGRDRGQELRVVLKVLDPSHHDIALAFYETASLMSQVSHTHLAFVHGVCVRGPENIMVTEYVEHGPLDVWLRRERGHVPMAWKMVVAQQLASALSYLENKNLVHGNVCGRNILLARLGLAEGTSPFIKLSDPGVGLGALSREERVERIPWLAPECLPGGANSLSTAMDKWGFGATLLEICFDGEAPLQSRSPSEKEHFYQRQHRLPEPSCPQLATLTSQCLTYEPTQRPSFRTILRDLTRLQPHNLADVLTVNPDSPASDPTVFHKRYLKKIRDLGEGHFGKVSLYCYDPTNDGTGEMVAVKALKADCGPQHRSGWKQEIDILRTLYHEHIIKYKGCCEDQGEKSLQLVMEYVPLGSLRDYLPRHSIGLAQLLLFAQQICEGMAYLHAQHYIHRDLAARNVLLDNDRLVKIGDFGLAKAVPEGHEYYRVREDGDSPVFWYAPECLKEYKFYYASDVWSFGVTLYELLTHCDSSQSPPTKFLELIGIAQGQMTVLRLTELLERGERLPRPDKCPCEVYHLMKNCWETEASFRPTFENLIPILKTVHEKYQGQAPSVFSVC

JAK1 = JAK1 (Homo sapiens (Human), UniProt P23458); assay: pSTAT3 Cell Assay (MSD, TF1 cells); assay type: cell-based
Chain of JAK1 (P23458 whole entry): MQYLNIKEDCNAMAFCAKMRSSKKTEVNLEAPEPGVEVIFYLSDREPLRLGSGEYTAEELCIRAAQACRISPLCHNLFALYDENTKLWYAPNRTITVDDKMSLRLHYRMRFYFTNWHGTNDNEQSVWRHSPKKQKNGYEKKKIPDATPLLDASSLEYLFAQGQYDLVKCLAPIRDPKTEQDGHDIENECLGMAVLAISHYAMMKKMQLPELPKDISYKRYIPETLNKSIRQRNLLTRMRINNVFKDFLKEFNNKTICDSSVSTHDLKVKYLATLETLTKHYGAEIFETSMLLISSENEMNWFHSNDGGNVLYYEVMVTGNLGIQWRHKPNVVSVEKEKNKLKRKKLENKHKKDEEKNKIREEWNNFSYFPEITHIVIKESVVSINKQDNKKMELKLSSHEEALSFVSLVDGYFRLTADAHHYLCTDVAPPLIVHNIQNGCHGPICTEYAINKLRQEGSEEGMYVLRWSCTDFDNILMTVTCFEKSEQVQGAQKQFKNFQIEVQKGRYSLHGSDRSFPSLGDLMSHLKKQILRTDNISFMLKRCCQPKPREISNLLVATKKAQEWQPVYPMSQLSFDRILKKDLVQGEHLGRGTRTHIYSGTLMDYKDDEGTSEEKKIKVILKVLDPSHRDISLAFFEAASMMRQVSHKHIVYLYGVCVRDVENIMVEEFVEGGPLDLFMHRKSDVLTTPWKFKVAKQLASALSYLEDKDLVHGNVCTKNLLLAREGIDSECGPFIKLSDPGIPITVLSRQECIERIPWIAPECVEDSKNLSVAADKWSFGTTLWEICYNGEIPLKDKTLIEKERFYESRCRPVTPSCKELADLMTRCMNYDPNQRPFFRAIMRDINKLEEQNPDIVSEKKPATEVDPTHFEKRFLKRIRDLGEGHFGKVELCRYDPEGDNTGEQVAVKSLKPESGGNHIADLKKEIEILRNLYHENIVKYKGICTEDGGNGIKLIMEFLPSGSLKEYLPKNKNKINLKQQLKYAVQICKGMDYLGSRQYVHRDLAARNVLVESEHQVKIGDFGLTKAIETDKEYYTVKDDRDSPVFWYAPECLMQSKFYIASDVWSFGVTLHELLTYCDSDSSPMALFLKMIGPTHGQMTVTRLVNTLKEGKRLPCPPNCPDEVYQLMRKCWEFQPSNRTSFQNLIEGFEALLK
Method: The inhibitory potency of compounds of the disclosure against the JAK1 kinase activity on STAT3 was evaluated using an MSD-platform plate-based assay format. TF1 cells natively expressing STAT3 and JAK1 were serum-starved to reduce background phosphorylation levels, then cells were treated with compounds of the disclosure for 1 hour with a 10-point four-fold dilution series starting at 10 μM. Cells were then stimulated with 30 ng/mL interleukin 6 (IL-6) for 15 minutes. Cells were lysed and pSTAT3 levels were quantitated using an MSD plate-based assay with anti-STAT3 antibodies. The data were normalized and the percent activity versus log concentration of compound was fitted with a 4-parameter logistic model to generate IC50 curves.

[1] = TR-FRET probe displacement, JH2 domain of human Tyk2
[2] = TR-FRET probe displacement, JH2 domain
[3] = JH2 domain of human Tyk2, TR-FRET probe displacement

Chain of JH2 domain of human Tyk2 (P29597 575-876): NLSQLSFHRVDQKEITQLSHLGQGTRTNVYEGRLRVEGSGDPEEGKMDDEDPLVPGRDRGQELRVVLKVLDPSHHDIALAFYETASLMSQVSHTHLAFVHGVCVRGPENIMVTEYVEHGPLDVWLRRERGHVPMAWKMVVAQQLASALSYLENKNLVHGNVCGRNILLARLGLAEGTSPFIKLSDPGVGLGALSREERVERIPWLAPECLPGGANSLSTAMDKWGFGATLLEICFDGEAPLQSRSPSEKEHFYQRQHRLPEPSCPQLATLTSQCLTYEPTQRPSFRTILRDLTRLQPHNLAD

SMILES | IC50 (JH2 domain of human Tyk2; [1]) [nM] | IC50 (Tyk2; MSD) [nM] | IC50 (JAK1; IL-6 stimulation, MSD) [nM] | IC50 (JH2 domain of human Tyk2; [2]) [nM] | IC50 (Tyk2) [nM] | IC50 (JAK1; IL-6 stimulated) [nM] | IC50 (JH2 domain of human Tyk2; [3]) [nM] | IC50 (JAK1; IL-6 stimulated, MSD) [nM]
COc1ccc(-c2cnc(NC(C)=O)cc2Nc2ccnc(C(C)(F)F)n2)nn1 [Example 214, N-(4-((2-(1,1-difluoroethyl)pyrimidin-4-yl)amino)-5-(6-methoxypyridazin-3-yl)pyridin-2-yl)acetamide trifluoroacetate] | ≤ 10 | ≤ 10 | ≥ 1000 | – | – | – | – | –
CCc1cc(Nc2cc(NC(C)=O)ncc2-c2ccc(NC)cn2)nc(C(C)(F)F)n1 [Example 859, N-(4′-((2-(1,1-difluoroethyl)-6-ethylpyrimidin-4-yl)amino)-5-(methylamino)-[2,3′-bipyridin]-6′-yl)acetamide] | – | – | – | ≤ 10 | ≤ 10 | ≥ 1000 | – | –
CC(=O)Nc1cc(Nc2cc(C)nc(C34COC(C3)C4)n2)c(-c2ccc(C#N)cn2)cn1 [Example 751, N-(4′-((2-(2-oxabicyclo[2.1.1]hexan-4-yl)-6-methylpyrimidin-4-yl)amino)-5-cyanO[2,3′-bipyridin]-6′-yl)acetamide] | – | – | – | ≤ 10 | 10 to 100 | ≥ 1000 | – | –
CC(=O)Nc1cc(Nc2ccnc(C(C)(F)F)n2)c(-c2ccnc(C(F)F)n2)cn1 [Example 775, N-(4-((2-(1,1-difluoroethyl)pyrimidin-4-yl)amino)-5-(2-(difluoromethyl)pyrimidin-4-yl)pyridin-2-yl)acetamide] | – | – | – | ≤ 10 | ≤ 10 | ≥ 1000 | – | –
COCCc1nnc(-c2cnc(NC(C)=O)cc2Nc2cc(C)nc(C(C)(F)F)n2)s1 [Example 754, N-(4-((2-(1,1-difluoroethyl)-6-methylpyrimidin-4-yl)amino)-5-(5-(2-methoxyethyl)-1,3,4-thiadiazol-2-yl)pyridin-2-yl)acetamide] | – | – | – | ≤ 10 | ≤ 10 | ≥ 1000 | – | –
COCc1ccc(-c2cnc(NC(C)=O)cc2Nc2cc(C)nc(C34CC(CO3)C4)n2)nc1 [Example 280, N-(4′-((2-(2-oxabicyclo[2.1.1]hexan-1-yl)-6-methylpyrimidin-4-yl)amino)-5-(methoxymethyl)-[2,3′-bipyridin]-6′-yl)acetamide] | ≤ 10 | ≤ 10 | ≥ 1000 | – | – | – | – | –
CCc1cc(Nc2cc(NC(C)=O)ncc2-c2ccc(CN(C)C)cn2)nc(C(C)(F)F)n1 [Example 266, N-(4′-((2-(1,1-difluoroethyl)-6-ethylpyrimidin-4-yl)amino)-5-((dimethylamino)methyl)-[2,3′-bipyridin]-6′-yl)acetamide] | ≤ 10 | ≤ 10 | 100 to 1000 | – | – | – | – | –
CC(=O)Nc1cc(Nc2cc(C)nc(C(C)(F)F)n2)c(-c2cccc([C@H]3CN(C)CCO3)n2)cn1 (single isomer, unassigned) [Example 642, (R)-N-(4′-((2-(1,1-difluoroethyl)-6-methylpyrimidin-4-yl)amino)-6-(4-methylmorpholin-2-yl)-[2,3′-bipyridin]-6′-yl)acetamide or (S)-N-(4′-((2-(1,1-difluoroethyl)-6-methylpyrimidin-4-yl)amino)-6-(4-methylmorpholin-2-yl)-[2,3′-bipyridin]-6′-yl)acetamide] | – | ≤ 10 | – | – | – | – | ≤ 10 | ≥ 1000
CC(=O)Nc1cc(Nc2cc(C)nc(C(C)(F)F)n2)c(-c2cn3c(n2)COCC3)cn1 [Example 768, N-(4-((2-(1,1-difluoroethyl)-6-methylpyrimidin-4-yl)amino)-5-(5,6-dihydrO8H-imidazo[2,1-c][1,4]oxazin-2-yl)pyridin-2-yl)acetamide] | – | – | – | ≤ 10 | ≤ 10 | ≥ 1000 | – | –
CCc1cc(Nc2cc(NC(C)=O)ncc2-c2cnn(C)n2)nc(C(C)(F)F)n1 [Example 918, N-(4-((2-(1,1-difluoroethyl)-6-ethylpyrimidin-4-yl)amino)-5-(2-methyl-2H-1,2,3-triazol-4-yl)pyridin-2-yl)acetamide] | – | – | – | ≤ 10 | ≤ 10 | ≥ 1000 | – | –
COCCOc1nccc(-c2cnc(NC(C)=O)cc2Nc2cc(C)nc(C(C)(F)F)n2)n1 [Example 776, N-(4-((2-(1,1-difluoroethyl)-6-methylpyrimidin-4-yl)amino)-5-(2-(2-methoxyethoxy)pyrimidin-4-yl)pyridin-2-yl)acetamide] | – | – | – | ≤ 10 | ≤ 10 | ≥ 1000 | – | –
CC(=O)Nc1cc(Nc2cc(C)nc(C(C)(F)F)n2)c(-c2nncs2)cn1 [Example 744, N-(4-((2-(1,1-difluoroethyl)-6-methylpyrimidin-4-yl)amino)-5-(1,3,4-thiadiazol-2-yl)pyridin-2-yl)acetamide] | – | ≤ 10 | – | – | – | – | ≤ 10 | ≥ 1000
CC(=O)Nc1cc(Nc2cc(C)nc(C(C)(F)F)n2)c(C(F)(F)C2CC2)cn1 [Example 153, N-(5-(cyclopropyldifluoromethyl)-4-((2-(1,1-difluoroethyl)-6-methylpyrimidin-4-yl)amino)pyridin-2-yl)acetamide] | ≤ 10 | ≤ 10 | ≥ 1000 | – | – | – | – | –
CC(=O)Nc1cc(Nc2cc(C)nc(C34COC(C3)C4)n2)c(-c2ccncn2)cn1 [Example 748, N-(4-((2-(2-oxabicyclo[2.1.1]hexan-4-yl)-6-methylpyrimidin-4-yl)amino)-5-(pyrimidin-4-yl)pyridin-2-yl)acetamide] | – | – | – | ≤ 10 | ≤ 10 | ≥ 1000 | – | –
CC(=O)Nc1cc(Nc2ccnc(C(C)(F)F)n2)c(-c2cn3c(n2)CCCC3)cn1 [Example 780, N-(4-((2-(1,1-difluoroethyl)pyrimidin-4-yl)amino)-5-(5,6,7,8-tetrahydroimidazo[1,2-a]pyridin-2-yl)pyridin-2-yl)acetamide] | – | – | – | ≤ 10 | ≤ 10 | ≥ 1000 | – | –
CC(=O)Nc1cc(Nc2cc(C)nc(C(C)(C)F)n2)c(-c2ccncn2)cn1 [Example 800, N-(4-((2-(2-fluoropropan-2-yl)-6-methylpyrimidin-4-yl)amino)-5-(pyrimidin-4-yl)pyridin-2-yl)acetamide] | – | – | – | ≤ 10 | ≤ 10 | ≥ 1000 | – | –
CCc1cc(Nc2cc(NC(C)=O)ncc2-c2ccc(OC(F)F)cn2)nc(C(C)(F)F)n1 [Example 849, N-(4′-((2-(1,1-difluoroethyl)-6-ethylpyrimidin-4-yl)amino)-5-(difluoromethoxy)-[2,3′-bipyridin]-6′-yl)acetamide] | – | – | – | ≤ 10 | ≤ 10 | ≥ 1000 | – | –
COCCc1cnc(-c2cnc(NC(C)=O)cc2Nc2cc(C)nc(C(C)(F)F)n2)s1 [Example 756, N-(4-((2-(1,1-difluoroethyl)-6-methylpyrimidin-4-yl)amino)-5-(5-(2-methoxyethyl)thiazol-2-yl)pyridin-2-yl)acetamide] | – | – | – | ≤ 10 | 100 to 1000 | ≥ 1000 | – | –
CC(=O)Nc1cc(Nc2cc(C)nc(C34COC(C3)C4)n2)c(-c2cc(C)ncn2)cn1 [Example 746, N-(4-((2-(2-oxabicyclo[2.1.1]hexan-4-yl)-6-methylpyrimidin-4-yl)amino)-5-(6-methylpyrimidin-4-yl)pyridin-2-yl)acetamide] | – | – | – | ≤ 10 | 100 to 1000 | ≥ 1000 | – | –
CCc1cc(Nc2cc(NC(C)=O)ncc2-c2cnc(N3CCOCC3)cn2)nc(C(C)(F)F)n1 [Example 861, N-(4-((2-(1,1-difluoroethyl)-6-ethylpyrimidin-4-yl)amino)-5-(5-morpholinopyrazin-2-yl)pyridin-2-yl)acetamide] | – | – | – | ≤ 10 | 10 to 100 | ≥ 1000 | – | –
COCn1ncc(-c2cnc(NC(C)=O)cc2Nc2cc(C)nc(C(C)(F)F)n2)n1 [Example 608, N-(4-((2-(1,1-difluoroethyl)-6-methylpyrimidin-4-yl)amino)-5-(2-(methoxymethyl)-2H-1,2,3-triazol-4-yl)pyridin-2-yl)acetamide] | – | ≤ 10 | – | – | – | – | ≤ 10 | ≥ 1000
CC(=O)Nc1cc(Nc2cc(C)nc(C(C)(F)F)n2)c(-c2cnc(C(F)F)cn2)cn1 [Example 921, N-(4-((2-(1,1-difluoroethyl)-6-methylpyrimidin-4-yl)amino)-5-(5-(difluoromethyl)pyrazin-2-yl)pyridin-2-yl)acetamide] | – | – | – | ≤ 10 | 10 to 100 | ≥ 1000 | – | –
CC(=O)Nc1cc(Nc2ccnc(C(C)(F)F)n2)c(-c2nc3c(s2)CN(C)CC3)cn1 [Example 798, N-(4-((2-(1,1-difluoroethyl)pyrimidin-4-yl)amino)-5-(5-methyl-4,5,6,7-tetrahydrothiazolo[5,4-c]pyridin-2-yl)pyridin-2-yl)acetamide] | – | – | – | ≤ 10 | ≤ 10 | ≥ 1000 | – | –
CCc1cc(Nc2cc(NC(C)=O)ncc2-c2cc(C(F)F)ncn2)nc(C(C)(F)F)n1 [Example 891, N-(4-((2-(1,1-difluoroethyl)-6-ethylpyrimidin-4-yl)amino)-5-(6-(difluoromethyl)pyrimidin-4-yl)pyridin-2-yl)acetamide] | – | – | – | ≤ 10 | ≤ 10 | ≥ 1000 | – | –
